Activity calls are given as the source filed them.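 Rule for the calls: active = compound whose fitted luminescence drop, meaning cytotoxicity, reaches half effect at most twice its top valid tested dose; inconclusive = flat curve with a moderate drop, or an unreliable fit; inactive = rise instead of drop, flat response, or weaker potency.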

Test system in the first assay: not listed separately
Nature of the assay: NIH/3T3 fibroblast cytotoxicity, dose response, cytotoxicity control for T. cruzi growth inhibitor project, cell-based, cherry-pick samples, set 2 (AID 651817). Particulars: NIH/3T3 viability, ATP luminescence (CellTiter-Glo), 90 h; at 19.5 µM (top of the series). In general terms: In ATP-based viability assays light output follows the ATP content of the culture.
On to `C[C@H](CO)N1C[C@H](C)[C@H](CN(C)Cc2ccc(Oc3ccccc3)cc2)Oc2c(NC(=O)c3ccncc3)cccc2C1=O`, for which the activity change, negative = cytotoxicity is -12.3% (inactive).
As to `Cc1ccc(S(=O)(=O)N(C)C[C@@H]2Oc3c(NC(=O)c4nc5ccccc5s4)cccc3C(=O)N([C@@H](C)CO)C[C@H]2C)cc1`, the activity change, negative = cytotoxicity is -13.6% (inactive).
As for `C[C@H]1CN([C@@H](C)CO)C(=O)Cc2cc(NS(=O)(=O)c3ccc(Cl)cc3)ccc2O[C@H]1CN(C)S(=O)(=O)c1ccc(Cl)cc1`, the activity change, negative = cytotoxicity is -12.7% (inactive).
The same measure, in the same setting: with `C[C@@H]1CN([C@@H](C)CO)C(=O)c2cccc(NC(=O)c3nc4ccccc4s3)c2O[C@@H]1CN(C)S(=O)(=O)c1ccc(Cl)cc1` the figure was -8.38% (inactive).
Still for that read-out and setting: with `C[C@H](CO)N1C[C@H](C)[C@@H](CN(C)S(=O)(=O)c2ccc(Cl)cc2)Oc2ccc(NS(=O)(=O)c3ccc(Cl)cc3)cc2CC1=O` the figure was -32.5% (inactive); with `C[C@@H]1CN([C@@H](C)CO)C(=O)c2cccc(NC(=O)c3ccncc3)c2O[C@@H]1CN(C)Cc1ccc(C(F)(F)F)cc1`, -16.7% (inactive); with `COc1ccc(CN(C)C[C@H]2Oc3c(NC(=O)c4ccncc4)cccc3C(=O)N([C@H](C)CO)C[C@@H]2C)cc1`, 23.4% (inactive).
The same measure, in the same setting: the value for `C[C@H]1CN([C@@H](C)CO)C(=O)Cc2cc(NS(=O)(=O)c3ccccc3)ccc2O[C@H]1CN(C)S(=O)(=O)c1ccc(Cl)cc1` was -30.3% (inactive).
As to `C[C@@H]1CN([C@H](C)CO)C(=O)c2cccc(NC(=O)c3ccncc3)c2O[C@@H]1CN(C)Cc1ccc(Cl)c(Cl)c1`, the activity change, negative = cytotoxicity was -9.65% (inactive).
On to `C[C@@H]1CN([C@@H](C)CO)C(=O)c2cccc(NC(=O)c3nc4ccccc4s3)c2O[C@@H]1CN(C)Cc1ccc2c(c1)OCO2`, for which the activity change, negative = cytotoxicity is 0.748% (inactive).
Turning to `C[C@@H]1CN([C@H](C)CO)C(=O)c2cccc(NC(=O)c3ccncc3)c2O[C@H]1CN(C)Cc1ccc(Oc2ccccc2)cc1`, the activity change, negative = cytotoxicity is -6.58% (inactive).
The same measure, in the same setting: with `Cc1ccc(S(=O)(=O)Nc2ccc3c(c2)CC(=O)N([C@H](C)CO)C[C@@H](C)[C@@H](CN(C)Cc2ccccc2)O3)cc1` the figure was -12.9% (inactive); with `Cc1ccc(S(=O)(=O)N(C)C[C@@H]2Oc3ccc(NS(=O)(=O)c4ccccc4)cc3CC(=O)N([C@@H](C)CO)C[C@@H]2C)cc1`, 9.31% (inactive); with `C[C@@H]1CN([C@@H](C)CO)C(=O)Cc2cc(NS(=O)(=O)c3ccccc3)ccc2O[C@H]1CN(C)S(=O)(=O)c1ccc(Cl)cc1`, 0.768% (inactive).

The assay is the same for the next values; noted with them: NIH/3T3 viability, ATP luminescence (CellTiter-Glo), 90 h; at 21 µM (top of the series).
Take `C[C@@H]1CN([C@@H](C)CO)C(=O)c2cccc(NC(=O)c3ccncc3)c2O[C@H]1CN(C)Cc1ccccc1`: the activity change, negative = cytotoxicity was 6.47% (inactive).
On the same count and under the same terms, with `C[C@H]1CN([C@@H](C)CO)C(=O)Cc2cc(NS(=O)(=O)c3ccc(F)cc3)ccc2O[C@@H]1CN(C)Cc1ccc(Cl)c(Cl)c1` the figure was -12.6% (inactive); with `C[C@H]1CN([C@@H](C)CO)C(=O)c2cccc(NC(=O)c3ccncc3)c2O[C@H]1CN(C)Cc1ccc2c(c1)OCO2`, 4.17% (inactive).
As to `Cc1ccc(S(=O)(=O)N(C)C[C@H]2Oc3ccc(NS(=O)(=O)c4ccc(Cl)cc4)cc3CC(=O)N([C@@H](C)CO)C[C@@H]2C)cc1`, the activity change, negative = cytotoxicity is -2.46% (inactive).
Still for that read-out and setting: the value for `C[C@@H]1CN([C@@H](C)CO)C(=O)c2cccc(NC(=O)c3ccncc3)c2O[C@@H]1CN(C)Cc1ccc(Oc2ccccc2)cc1` was 31.2% (inactive).

The subject of the next assay is NIH/3T3 viability, ATP luminescence (CellTiter-Glo), 90 h. The description is as above.
Details: not given
Consider `C[C@@H]1CN([C@@H](C)CO)C(=O)c2cccc(NC(=O)c3ccncc3)c2O[C@H]1CN(C)Cc1ccc(Oc2ccccc2)cc1`, for which the concentration at half-maximal activity (AC50) (commonly the concentration at which the activity in the assay is half-maximal) was 20.5 µM.

Values taken from PubChem BioAssay AID651817 (Broad Institute, 2012).
